Test results as given in PubChem BioAssay AID1963847 (Molecular Pharmacology Branch, DTP, NCI, 2024).
Where “and” joins values, the source holds several entries; their conditions need not be identical. Equal entries are not always repeated.

Tested on: 415267-285-R-J2-PDC complex spheroid viability
Assay: Anticancer human tumor 415267-285-R-J2-PDC patient-derived breast carcinoma cell line growth inhibition [POLQ]
Conditions: for viability, T/C: stronger effect = lower value
Description: Multicellular complex tumor spheroid response to Polymerase (POL) inhibitors (novobiocin, ART-558, RP6685) in combination with a variety of drugs and investigational agents in selected tumor cell lines
The POL inhibitors (novobiocin, ART-558, and RP6685) were evaluated both individually and in combination with standard of care and investigational anticancer small molecules within a complex spheroid model of solid tumors. . Complex spheroids include a stromal component modeled by human endothelial cells (HUVEC) and fibroblasts modeled by human mesenchymal stem cells (MSCs). The concentration ranges selected for each drug and investigational agent were based upon clinically achievable concentrations if the clinical Cmax of the agent was known.
Compounds. The drugs and investigational agents: novobiocin (NSC847541), ART-558 (NSC835418), RP-6685 (NSC848927), peposertib (NSC802822), ceralasertib (NSC780249), elimusertib (NSC800525), camonsertib (NSC841442), AZD-1390 (NSC803789), olaparib (NSC753686), talazoparib (NSC767125), rucaparib (NSC756644), sotorasib (NSC818433), MRTX-1133 (NSC836407), SN-38 (NSC673596), topotecan (NSC609699), epotoside (NSC141540), doxorubicin (NSC123127), gemcitabine (NSC613327), 5-fluorouracil (NSC19893), paclitaxel (NSC125973), vemurafenib (NSC761431), MSA-2 (NSC828583), SN-011 (NSC837082), adavosertib (NSC754352), prexasertib (NSC758257), carboplatin (NSC241240) and oxaliplatin (NSC266046), were obtained from the National Cancer Institute (NCI) Developmental Therapeutics Program Chemical Repository (21). The FDA-approved anticancer drug set is available from the Developmental Therapeutics Program at https://dtp.cancer.gov/organization/dscb/obtaining/. […] The stock solutions were prepared in dimethyl sulfoxide (DMSO, Sigma-Aldrich, St. Louis, MO, cat. D2650), except for the platinum compounds which were prepared in saline (Quality Biological, Gaithersburg, MD, cat. 114-055-101), at 800-fold the tested concentration and stored at -70 degrees C prior to their use. All drugs and investigational agents were tested over a range starting from a high concentration at or near the clinical Cmax and decreasing in half-log increments. If the clinical Cmax for an agent had not been determined, the highest concentration tested was 10 microM, except for SN-38, which was tested at a high concentration of 1 microM.
Cell Culture. All cells were maintained in an incubator at 37 degrees C and 5% CO2 with 95% humidity. The PDC lines were cultured according to standard operating procedures established by the NCI PDMR (https://pdmr.cancer.gov). Table 3 of the manuscript, lists the cell lines along with the number of the three cell types plated to form the mct-spheroids and media for tumor cell growth. After thawing, all PDC lines, except 997537-175-T-J1-PDC and 415267-285-R-J2-PDC, were cultured in Matrigel-coated flasks prepared with a working solution of 1X Ham's F-12 nutrient mix, without supplementation (Thermo Fisher Scientific, cat. 11765054), 100 U/mL penicillin-streptomycin (Thermo Fisher Scientific, cat. 15140122), and 2.5% Matrigel (Corning Inc., Corning, NY, cat. 354248) for the first three passages. The two PDC lines 997537-175-T-J1-PDC and 415267-285-R-J2-PDC were cultured on uncoated flasks. The 857933-349-R-J2-PDC line was cultured in 6C/Colon 1B media containing advanced DMEM/F-12 (Thermo Fisher Scientific, cat. 12634028), 10 mM HEPES (Thermo Fisher Scientific, cat. 15630080), 1X GlutaMAX supplement (Thermo Fisher Scientific, cat. 35050061), 0.1 mg/mL primocin (InvivoGen, San Diego, CA, cat. ant-pm-2), 10% defined fetal bovine serum, heat inactivated (HyClone Laboratories Inc., Logan, UT, cat. SH30070.03HI), 50% L-WRN conditioned media (ATCC, cat. CRL-3276), 1.25 mM N-Acetyl-L-cysteine (Sigma-Aldrich, cat. A9165), 10 mM nicotinamide (Sigma-Aldrich, cat. N0636), 1X B-27 supplement (Thermo Fisher Scientific, cat. 17504044), 1X N-2 supplement (Thermo Fisher Scientific, cat. […]
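Further: spheroids exposed to compounds for one week before readout.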
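Wherever viability, T/C is given: luminescence used as stand-in measure of viable cells; 100% = DMSO vehicle control viability.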

SMILES: CC1COCCN1c1cc(C2(O)CC3CCC(C2)O3)c2cnn(-c3ccn[nH]3)c2n1 (configuration not stated)
- viability, T/C (compound 0.0316 µM): 18.3% and 19.4% and 19.9%
- viability, T/C (compound 0.1 µM): 6.66% and 6.95% and 6.71%
- viability, T/C (compound 0.316 µM): 5.68% and 5.24% and 4.27%
- viability, T/C (compound 1 µM): 3.96% and 5.04% and 3.53%
- viability, T/C (compound 3.16 µM): 6.45% and 6.44% and 3.52%
- viability, T/C (compound 10 µM): 4.11% and 4.93% and 2.88%
- IC50 (curve of compound): < 31.6 nM

SMILES: CCc1cc2c(N3CCc4c(cc(Cn5ccnc5)cc4-c4cn(C)nc4C(F)(F)F)C3=O)cc(C)nc2c(OC)n1
- viability, T/C (compound 0.0316 µM): 84.8% and 99.7% and 90.9%
- viability, T/C (compound 0.1 µM): 89.5% and 98.3% and 92.6%
- viability, T/C (compound 0.316 µM): 74.6% and 79% and 86.6%
- viability, T/C (compound 1 µM): 80.3% and 82.8% and 91.5%
- viability, T/C (compound 3.16 µM): 71.9% and 84% and 83.9%
- viability, T/C (compound 10 µM): 69% and 78.6% and 69.5%
- IC50 (curve of compound): > 10000 nM

SMILES: O=c1[nH]cc(F)c(=O)[nH]1
- viability, T/C (compound 0.0316 µM): 87.3% and 92.5% and 87%
- viability, T/C (compound 0.1 µM): 74.7% and 89% and 73.5%
- viability, T/C (compound 0.316 µM): 33.6% and 48.5% and 30.5%
- viability, T/C (compound 1 µM): 29.1% and 24.6% and 27.7%
- viability, T/C (compound 3.16 µM): 24.6% and 24.4% and 26%
- viability, T/C (compound 10 µM): 31.8% and 40.5% and 34.1%
- IC50 (curve of compound): 200 nM and 302 nM and 187 nM

SMILES: COc1cc(C2c3cc4c(cc3C(OC3OC5COC(C)OC5C(O)C3O)C3COC(=O)C23)OCO4)cc(OC)c1O (configuration not stated)
- viability, T/C (compound 0.0316 µM): 91.8% and 103% and 92%
- viability, T/C (compound 0.1 µM): 59.7% and 89.7% and 71.3%
- viability, T/C (compound 0.316 µM): 14.1% and 19.4% and 17.1%
- viability, T/C (compound 1 µM): 7.22% and 5.65% and 8.76%
- viability, T/C (compound 3.16 µM): 4.9% and 4.07% and 5.15%
- viability, T/C (compound 10 µM): 5.87% and 5.42% and 6.28%
- IC50 (curve of compound): 128 nM and 192 nM and 157 nM

SMILES: C#Cc1c(F)ccc2cc(O)cc(-c3ncc4c(N5CC6CCC(C5)N6)nc(OCC56CCCN5CC(F)C6)nc4c3F)c12 (configuration not stated)
- viability, T/C (compound 0.0316 µM): 106% and 95.4% and 97.2%
- viability, T/C (compound 0.1 µM): 103% and 112% and 92.5%
- viability, T/C (compound 0.316 µM): 102% and 106% and 94.2%
- viability, T/C (compound 1 µM): 107% and 109% and 97.7%
- viability, T/C (compound 3.16 µM): 106% and 91.5% and 101%
- viability, T/C (compound 10 µM): 101% and 98% and 104%
- IC50 (curve of compound): > 10000 nM

SMILES: Cn1ncnc1[C@H]1c2n[nH]c(=O)c3cc(F)cc(c23)N[C@@H]1c1ccc(F)cc1 + Cc1cccc(N(C)C(=O)C2C(O)CCN2c2nc(C)cc(C(F)(F)F)c2C#N)c1
- IC50 (curve of first compound, second compound 0.0316 µM): > 100 nM
- IC50 (curve of first compound, second compound 0.1 µM): > 100 nM
- IC50 (curve of first compound, second compound 0.316 µM): > 100 nM
- IC50 (curve of first compound, second compound 1 µM): > 100 nM
- IC50 (curve of first compound, second compound 3.16 µM): > 100 nM
- IC50 (curve of first compound, second compound 10 µM): > 100 nM
- viability, T/C (second compound 0.0316 µM, first compound 0.000316 µM): 92.9%
- viability, T/C (second compound 0.0316 µM, first compound 0.001 µM): 103%
- viability, T/C (second compound 0.0316 µM, first compound 0.00316 µM): 106%
- viability, T/C (second compound 0.0316 µM, first compound 0.01 µM): 96.3%
- viability, T/C (second compound 0.0316 µM, first compound 0.0316 µM): 104%
- viability, T/C (second compound 0.0316 µM, first compound 0.1 µM): 96.5%
- viability, T/C (second compound 0.1 µM, first compound 0.000316 µM): 90.8%
- viability, T/C (second compound 0.1 µM, first compound 0.001 µM): 93.9%
- viability, T/C (second compound 0.1 µM, first compound 0.00316 µM): 114%
- viability, T/C (second compound 0.1 µM, first compound 0.01 µM): 109%
- viability, T/C (second compound 0.1 µM, first compound 0.0316 µM): 99.9%
- viability, T/C (second compound 0.1 µM, first compound 0.1 µM): 97.9%
- viability, T/C (second compound 0.316 µM, first compound 0.000316 µM): 97.1%
- viability, T/C (second compound 0.316 µM, first compound 0.001 µM): 90.4%
- viability, T/C (second compound 0.316 µM, first compound 0.00316 µM): 95.7%
- viability, T/C (second compound 0.316 µM, first compound 0.01 µM): 96.8%
- viability, T/C (second compound 0.316 µM, first compound 0.0316 µM): 95.3%
- viability, T/C (second compound 0.316 µM, first compound 0.1 µM): 87.2%
- viability, T/C (second compound 1 µM, first compound 0.000316 µM): 103%
- viability, T/C (second compound 1 µM, first compound 0.001 µM): 95.6%
- viability, T/C (second compound 1 µM, first compound 0.00316 µM): 93.9%
- viability, T/C (second compound 1 µM, first compound 0.01 µM): 101%
- viability, T/C (second compound 1 µM, first compound 0.0316 µM): 98.3%
- viability, T/C (second compound 1 µM, first compound 0.1 µM): 101%
- viability, T/C (second compound 3.16 µM, first compound 0.000316 µM): 92.9%
- viability, T/C (second compound 3.16 µM, first compound 0.001 µM): 97.1%
- viability, T/C (second compound 3.16 µM, first compound 0.00316 µM): 103%
- viability, T/C (second compound 3.16 µM, first compound 0.01 µM): 103%
- viability, T/C (second compound 3.16 µM, first compound 0.0316 µM): 99.8%
- viability, T/C (second compound 3.16 µM, first compound 0.1 µM): 87.7%
- viability, T/C (second compound 10 µM, first compound 0.000316 µM): 93.3%
- viability, T/C (second compound 10 µM, first compound 0.001 µM): 97.9%
- viability, T/C (second compound 10 µM, first compound 0.00316 µM): 110%
- viability, T/C (second compound 10 µM, first compound 0.01 µM): 93%
- viability, T/C (second compound 10 µM, first compound 0.0316 µM): 91%
- viability, T/C (second compound 10 µM, first compound 0.1 µM): 90.5%
